Values of other authors as cited in patent publication US20030109678A1, “Methods and means for regulation of gene expression” (priority 2000, published 2003).

Molecular target: mutated form of the human estrogen receptor (ER), G521R mutation (Homo sapiens, UniProt P03372, G521R)
Sequence (P03372 whole entry G521R): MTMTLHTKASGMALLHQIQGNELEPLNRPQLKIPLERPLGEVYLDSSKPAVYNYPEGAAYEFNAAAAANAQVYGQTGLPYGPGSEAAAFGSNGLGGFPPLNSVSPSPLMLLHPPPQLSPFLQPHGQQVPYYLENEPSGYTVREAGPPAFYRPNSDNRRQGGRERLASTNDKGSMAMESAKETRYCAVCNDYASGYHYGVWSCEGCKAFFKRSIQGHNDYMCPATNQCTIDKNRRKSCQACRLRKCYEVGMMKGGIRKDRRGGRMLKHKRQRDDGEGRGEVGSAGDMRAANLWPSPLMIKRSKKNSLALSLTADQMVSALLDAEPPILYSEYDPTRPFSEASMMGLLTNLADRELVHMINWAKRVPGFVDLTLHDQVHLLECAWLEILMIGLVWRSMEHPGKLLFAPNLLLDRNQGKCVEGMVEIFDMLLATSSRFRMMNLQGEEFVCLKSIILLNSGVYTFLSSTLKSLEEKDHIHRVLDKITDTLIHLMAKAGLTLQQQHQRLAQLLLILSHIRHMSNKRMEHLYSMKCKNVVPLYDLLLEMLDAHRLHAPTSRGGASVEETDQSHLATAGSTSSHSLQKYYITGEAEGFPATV

## 4-hydroxytamoxifen
  binding by G521R ER: efficiently binds
